Assay results from PubChem BioAssay (NCI).
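Five concentrations, 48 hours, 96-well plates. GI50: concentration for 50% inhibition of growth. Definition used: TGI = concentration required for complete inhibition of growth.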

How the values were obtained:
Assay in all cases: NCI anticancer screen, dose series, 48 h
786-0 renal = system: 786-0 renal
EKVX NSCLC = system: EKVX NSCLC
HOP-62 NSCLC = system: HOP-62 NSCLC
HT29 colon = system: HT29 colon
K-562 leukemia = system: K-562 leukemia
M14 melanoma = system: M14 melanoma
RPMI-8226 leukemia = system: RPMI-8226 leukemia
SF-539 CNS = system: SF-539 CNS
SK-MEL-5 melanoma = system: SK-MEL-5 melanoma
U251 CNS = system: U251 CNS

## NC(N)=N/N=C(/c1nc2ccc([N+](=O)[O-])cc2[nH]c1=O)C(O)c1ccco1 (stereo not given)
786-0 renal
  TGI: > 100 µM
EKVX NSCLC
  TGI: > 100 µM
HOP-62 NSCLC
  TGI: > 100 µM
HT29 colon
  TGI: > 100 µM
K-562 leukemia
  TGI: > 100 µM
M14 melanoma
  TGI: > 100 µM
RPMI-8226 leukemia
  TGI: > 100 µM
SF-539 CNS
  TGI: > 100 µM
SK-MEL-5 melanoma
  TGI: > 100 µM
U251 CNS
  TGI: > 100 µM

## C=CCc1cc2cccc(OC)c2oc1=O
786-0 renal
  TGI: > 100 µM
EKVX NSCLC
  TGI: > 100 µM
HOP-62 NSCLC
  TGI: > 100 µM
HT29 colon
  TGI: > 100 µM
K-562 leukemia
  TGI: > 100 µM
M14 melanoma
  TGI: > 100 µM
RPMI-8226 leukemia
  TGI: > 100 µM
SF-539 CNS
  TGI: > 100 µM
SK-MEL-5 melanoma
  TGI: > 100 µM
U251 CNS
  TGI: > 100 µM

## CCOC(=O)[C@@H](C)C[C@H](Cc1ccccc1)NC(=O)c1csc([C@@H](C[C@H](C(C)C)N(C)C(=O)[C@@H](NC(=O)[C@H]2C[C@H](O[Si](C)(C)C(C)(C)C)CCN2C)C(C)C)OC(C)=O)n1
786-0 renal
  GI50: 0.286 µM
  TGI: > 4.36 µM
EKVX NSCLC
  GI50: 0.505 µM
  TGI: > 8.33 µM
HOP-62 NSCLC
  GI50: 0.411 µM
  TGI: > 8.01 µM
HT29 colon
  GI50: 0.267 µM
  TGI: 1.96 µM
K-562 leukemia
  GI50: 0.17 µM
  TGI: > 5.06 µM
M14 melanoma
  GI50: 0.198 µM
  TGI: 1.03 µM
RPMI-8226 leukemia
  GI50: 0.275 µM
  TGI: 2.25 µM
SF-539 CNS
  GI50: 0.21 µM
  TGI: 0.625 µM
SK-MEL-5 melanoma
  GI50: 0.187 µM
  TGI: 1.39 µM
U251 CNS
  GI50: 0.319 µM
  TGI: > 4.18 µM

## Oc1ccc(N=Nc2ccc(Cl)cc2)cc1
786-0 renal
  TGI: 31.5 µM
EKVX NSCLC
  TGI: 31.8 µM
HOP-62 NSCLC
  TGI: 35.6 µM
HT29 colon
  TGI: 32.2 µM
K-562 leukemia
  TGI: 55.7 µM
M14 melanoma
  TGI: 23.3 µM
RPMI-8226 leukemia
  TGI: 80.4 µM
SF-539 CNS
  TGI: 36.7 µM
SK-MEL-5 melanoma
  TGI: 24.1 µM
U251 CNS
  TGI: 29.7 µM

## O=C1C(Br)=C[C@H]2C3C=CC(Br)(C3=O)[C@@H]12 (stereo not given in full)
786-0 renal
  TGI: 48.2 µM
EKVX NSCLC
  TGI: 28.8 µM
HOP-62 NSCLC
  TGI: 92.5 µM
HT29 colon
  TGI: 23.8 µM
K-562 leukemia
  TGI: > 100 µM
M14 melanoma
  TGI: 21.6 µM
RPMI-8226 leukemia
  TGI: > 100 µM
SF-539 CNS
  TGI: 39.4 µM
SK-MEL-5 melanoma
  TGI: 27.2 µM
U251 CNS
  TGI: 27.3 µM

## CCN(CC)CCC1CC/C(=C\c2ccc(OC)cc2)C1=O (stereo not given)
786-0 renal
  TGI: > 100 µM
EKVX NSCLC
  TGI: > 100 µM
HOP-62 NSCLC
  TGI: > 100 µM
HT29 colon
  TGI: > 100 µM
K-562 leukemia
  TGI: > 100 µM
M14 melanoma
  TGI: > 100 µM
RPMI-8226 leukemia
  TGI: > 100 µM
SF-539 CNS
  TGI: > 100 µM
SK-MEL-5 melanoma
  TGI: 44 µM
U251 CNS
  TGI: > 100 µM

## COc1cc2c(cc1OCc1ccccc1)N=C[C@@H]1C/C(=C/C(=O)NCCCN3C(=O)c4cccc5cccc(c45)C3=O)CN1C2=O
786-0 renal
  GI50: 0.423 µM
  TGI: 11 µM
EKVX NSCLC
  GI50: 1.75 µM
  TGI: 6.17 µM
HOP-62 NSCLC
  GI50: 0.583 µM
  TGI: > 40.3 µM
HT29 colon
  GI50: 0.825 µM
  TGI: > 100 µM
K-562 leukemia
  GI50: 0.424 µM
  TGI: > 100 µM
M14 melanoma
  GI50: 2.17 µM
  TGI: 6.92 µM
RPMI-8226 leukemia
  GI50: 0.432 µM
  TGI: > 100 µM
SF-539 CNS
  GI50: 0.332 µM
  TGI: 1.47 µM
SK-MEL-5 melanoma
  GI50: 1.04 µM
  TGI: 3.33 µM
U251 CNS
  GI50: 0.444 µM
  TGI: > 100 µM

## C=CC(=O)N1CCCC(n2nc(-c3ccc(Oc4ccccc4)cc3)c3c(N)ncnc32)C1 (stereo not given)
786-0 renal
  GI50: 1.86 µM
  TGI: 16.6 µM
EKVX NSCLC
  GI50: 0.164 µM
  TGI: 6.65 µM
HOP-62 NSCLC
  GI50: 12.9 µM
  TGI: 26.1 µM
HT29 colon
  GI50: 5.93 µM
  TGI: 21 µM
K-562 leukemia
  GI50: 4.13 µM
  TGI: 24.4 µM
M14 melanoma
  GI50: 7.59 µM
  TGI: 21.4 µM
RPMI-8226 leukemia
  GI50: 6.57 µM
  TGI: 31.2 µM
SF-539 CNS
  GI50: 6.73 µM
  TGI: 21 µM
SK-MEL-5 melanoma
  GI50: 6.55 µM
  TGI: 19.3 µM
U251 CNS
  GI50: 6.11 µM
  TGI: 20.4 µM
